From patent publication US20260256921A1, “BIFUNCTIONAL MOLECULES TO TARGET DEGRADATION OF TUMOR NECROSIS FACTOR” (Biohaven Therapeutics Ltd., priority 2023, published 2026)
pIC50, pKd: −log10 of the molar value.

Experiments:
human TNF-α [1] = molecular target: T1, human TNF-α (Homo sapiens, UniProt P01375); experiment: TNF-α thermal melt assay; assay type: binding; design: Amino acids 77-233 of Human TNF-α protein with an N-terminal GST tag; GST (N, cleaved yes); made in house; host or cells: Escherichia coli (BL21 NiCo); settings: thermal melt, SYPRO Orange, Kd calculated as in Matulis et al.; read-out: TM Kd
Procedure: Protein was purified using glutathione agarose purification columns (Pierce™, Waltham, MA, USA). Following purification, the GST tag was removed using HRV3c protease (Pierce™, Waltham, MA, USA) and the GST tag and the TNF-α were separated via ion exchange chromatography using a 20 mM HEPES pH 8.0 buffer system ramping from 0 to 1 M NaCl over 12 column volumes with 5 ml of Q Sepharose (HiScreen Q HP, Cytiva™, Marlborough, MA, USA). The final protein includes the amino acids GPLGSG at the N-terminus of the protein.
Protein was heated from 20° C. to 95° C. at one degree per minute in a Roche Opus384 qPCR machine.
Target sequence in this assay (P01375 77-233): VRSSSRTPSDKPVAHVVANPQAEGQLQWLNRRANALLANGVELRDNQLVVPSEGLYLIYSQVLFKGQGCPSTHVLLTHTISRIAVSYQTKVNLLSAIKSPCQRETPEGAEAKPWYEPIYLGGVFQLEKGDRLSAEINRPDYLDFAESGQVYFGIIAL

[2] = molecular target: T2, Biotinylated Human TNF-α Protein (active trimer) (Homo sapiens, UniProt P01375); experiment: Octet (BLI) binding to TNF-α; settings: 1:1 binding model, N.B. = No Binding
T2 construct: purchased ACROBiosystems TNA-H82E3
Procedure: Protocol. The binding to IL-17A was measured by Bio-Layer Interferometry (BLI) using the Sartorius Octet 96e platform (Goettingen, Germany). The binding assay was performed using Streptavidin (SA) Dip and Read Biosensors (Sartorius Catalog #18-5019; Goettingen, Germany) in OptiPlate-96F, Black, 96-well, Pinch bar design, plates (Perkin Elmer Catalog #6005270; Waltham, MA, USA) with the following steps: (1) 60 seconds of baseline; (2) 600 seconds of loading with 50 nM TNF-α (Biotinylated Human TNF-α Protein, His, Avitag (active trimer); ACROBiosystems Catalog #TNA-H82E3; Newark, DE, USA); (3) 60 seconds of baseline; (4) 120 seconds of quenching with 50 μg/ml of Biocytin (Thermo Fisher Catalog #B1592; Waltham, MA, USA); (5) 60 seconds of baseline; (6) 180 seconds of association with a dilution series of ligand consisting of seven concentrations. The eighth tip in the column was run in Assay Buffer (Phosphate Buffered Saline (PBS; Gibco Catalog #10010; Pottstown, PA, USA)+0.05% Tween 20 (v/v) (Fisher BioReagents Catalog BP337-500; Pittsburgh, PA, USA)+0.1% BSA (w/v) (Rockland Catalog #BSA-50; Pottstown, PA, USA)) to serve as a reference sensor, the signal of which was subtracted from the sample sensors. (7) 180 seconds of dissociation in Assay Buffer.
Results. Data analysis was done using the Octet Data Analysis HT software (Sartorius, Goettingen, Germany). Processed data was globally fit to a 1:1 binding model for determination of the equilibrium dissociation constant (KD).

human TNF-α [3] = molecular target: T1, human TNF-α; experiment: TNF-α functional assay (hHEK-TNF-α SEAP reporter cells); assay type: cell-based; design: purchased ACROBiosystems TNA-H4211; settings: hHEK-TNF-α cells, SEAP readout, TNF-α added at EC80 (1.034 pM), 18-24 hours; read-out: TNF-α Function IC50
Excerpt: Human HEK TNF-αcells (hHEK-TNF-α cells; InvivoGen Catalog #hkb-tnfdmyd; San Diego, CA, USA) are human embryonic kidney HEK293 cells that are stably transfected with the reporter gene, secreted alkaline phosphatase (SEAP). The hHEK-TNF-α cells allow for the detection of bioactive human and murine TNF-α via the activation of the NF-kB-inducible promoter and subsequent production of SEAP. Bioactivity of commercial human TNF-α protein (ActiveMax® Human TNF-α Protein, Tag Free, Low Endotoxin; available by ACROBiosystems Catalog #TNA-H4211; Newark, DE, USA) was determined in this reporter system.
Test molecules were dissolved in 100% DMSO and serially diluted by either 3-fold serial dilution or 4-fold serial dilution. […] TNF-α protein was added at the previously determined ECso. Plates containing cells, test molecules, and cytokine were incubated overnight for 18-24 hours at 37° C., 5% CO2.
The level of SEAP in the supernatant of each well was quantified using the Quanti Blue™ Solution (InvivoGen Catalog #rep-qba2; San Diego, CA, USA), a reagent with a colorimetric change in the presence of SEAP. To perform the Quanti-Blue assay: 20 L of the sample supernatant after the overnight 18-24 hour incubation was added to 180 L of Quanti Blue™ Reagent and incubated for 45 minutes at 37° C. […] Inhibition of TNF-α signaling was calculated utilizing GraphPad Prism (San Diego, CA, USA).
Target sequence in this assay (P01375 77-233 limits assumed): as the sequence (P01375 77-233) above

T2 sequence (P01375 77-233 limits assumed): as the sequence (P01375 77-233) above

Structure (SMILES)	pKd (human TNF-α [1])	Octet Kd TNF-α [2]	pIC50 (human TNF-α [3])
CCC(=O)NC1COC(COCCOCCOCCOCCn2cc(COCCNC(=O)CNC(=O)CCOCCOCCOCCOCCOCCOCCC(=O)N3CCN(Cc4ccc(-c5c[nH]c6ccncc56)c(OCCc5ccc(-c6cccc7ccncc67)cc5)c4)CC3)nn2)C(O)C1O (stereo not drawn) [Compound 105]	7.19	N.B.	6.48
CCC(=O)NC1COC(COCCOCCOCCOCCn2cc(COCC(COCc3cn(CCOCCOCCOCCOCC4OCC(NC(=O)CC)C(O)C4O)nn3)(COCc3cn(CCOCCOCCOCCOCC4OCC(NC(=O)CC)C(O)C4O)nn3)NC(=O)CNC(=O)CCOCCOCCC(=O)N3CCN(Cc4ccc(-c5c[nH]c6ccncc56)c(OCCc5ccc(-c6cccc7ccncc67)cc5)c4)CC3)nn2)C(O)C1O (stereo not drawn) [Compound 103]	6.00	N.B.	< 2.00
CCC(=O)NC1COC(COCCOCCOCCOCCn2cc(COCC(COCc3cn(CCOCCOCCOCCOCC4OCC(NC(=O)CC)C(O)C4O)nn3)(COCc3cn(CCOCCOCCOCCOCC4OCC(NC(=O)CC)C(O)C4O)nn3)NC(=O)CNC(=O)CCC(=O)N3CCN(Cc4ccc(-c5c[nH]c6ccncc56)c(OCCc5ccc(-c6cccc7ccncc67)cc5)c4)CC3)nn2)C(O)C1O (stereo not drawn) [Compound 104]	6.00	N.B.	6.00

Other lines, results leading:

pKd (human TNF-α [1])	Octet Kd TNF-α [2]	pIC50 (human TNF-α [3])	Structure (SMILES)
7.30	N.B.	6.45	CCC(=O)N[C@H]1CO[C@H](COCCOCCOCCOCCn2cc(COCCNC(=O)CNC(=O)CCC(=O)N3CCN(Cc4ccc(-c5c[nH]c6ccncc56)c(OCCc5ccc(-c6cccc7ccncc67)cc5)c4)CC3)nn2)[C@H](O)[C@@H]1O [Compound 106]
7.26	N.B.	6.50	CCC(=O)N[C@H]1CO[C@H](COCCOCCOCCOCCn2cc(COCCNC(=O)CNC(=O)CCOCCOCCC(=O)N3CCN(Cc4ccc(-c5c[nH]c6ccncc56)c(OCCc5ccc(-c6cccc7ccncc67)cc5)c4)CC3)nn2)[C@H](O)[C@@H]1O [Compound 107]
